Test results reported in patent US11896673B2, “Glucose responsive insulin delivery compositions and methods” (NORTH CAROLINA STATE UNIVERSITY, priority 2016, dated 2024).

Tests used:
[1] = system: STZ-induced type 1 diabetic mice; experiment: In vivo bioactivity comparison of native insulin and Glu-Insulin; settings: same insulin concentration 5 mg/kg
Source text: Glucose was conjugated to insulin via a bifunctional maleimide linker (FIG. 2). Glu-Insulin was clearly identified by the sodium dodecyl sulfate polyacrylamide gel electrophoresis (SDS-PAGE) and matrix-assisted laser desorption/ionization mass spectrometry (MALDI MS) (FIG. 3A-B). As calculated by MALDI-MS, two glucose molecules are conjugated to each insulin molecule (feed molar ratio of glucose to insulin: 100:1). […] In short, the modification of insulin with glucose has a statistically insignificant impact on bioactivity relative to unmodified insulin.

[2] = system: mRBCs; experiment: Binding/loading of Glu-Insulin to mouse RBCs (confocal, flow cytometry, ELISA); settings: incubated overnight, confocal fluorescence microscopy
Experimental: Preparation of insulin loaded RBCs. Whole blood was collected from the B16 mice or from a human volunteer (The study protocol was approved by the Institutional Review Board at North Carolina State University). RBCs were separated from the whole blood by centrifugation (1000 g, 10 min) and washed thrice with cold PBS (300 mOsm, pH=8.0) to remove the glucose intracellularly. To load the insulin to RBC membrane, Glu-Insulin (0.5 mg/ml) was incubated with […] RBCs (1×10^8) under gentle stirring at 4° C. overnight. RBCs were washed thrice with cold PBS (300 mOsm, pH 8) to remove the unconjugated Glu-Insulin. Bound insulin was determined by ELISA assay.

[3] = target: T1, GLUT1 (Rattus norvegicus, UniProt P11167); experiment: Binding of free GLUT1 protein and Glu-Insulin in vitro (centrifugal filter); settings: overnight incubation, MWCO=10 kDa filter
T1 construct: His6 (pET-28a vector-encoded) (N); T7 tag (pET-28a vector-encoded, upstream of BamHI site) (N); made in house; host or cells: E. coli Rosetta (DE3) pLysS
T1 sequence (P11167 1-492): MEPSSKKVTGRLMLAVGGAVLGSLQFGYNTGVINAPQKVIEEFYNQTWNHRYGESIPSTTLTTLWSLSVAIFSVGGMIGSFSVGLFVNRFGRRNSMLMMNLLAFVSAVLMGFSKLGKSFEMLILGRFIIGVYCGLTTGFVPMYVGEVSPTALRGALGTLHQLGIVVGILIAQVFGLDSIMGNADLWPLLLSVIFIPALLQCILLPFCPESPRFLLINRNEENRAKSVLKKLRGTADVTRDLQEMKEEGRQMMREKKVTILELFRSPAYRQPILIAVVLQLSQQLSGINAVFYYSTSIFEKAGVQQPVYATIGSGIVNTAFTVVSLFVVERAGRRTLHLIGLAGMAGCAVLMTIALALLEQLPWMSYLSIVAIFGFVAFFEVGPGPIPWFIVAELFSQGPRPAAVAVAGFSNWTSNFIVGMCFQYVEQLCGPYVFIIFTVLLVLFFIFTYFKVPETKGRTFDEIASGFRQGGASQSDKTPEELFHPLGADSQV
Experimental: Glucose modified insulin was mixed with GLUT1 protein at a molar ratio of 1.2:1 for 12 hours at 4° C. Free Glu-insulin were removed by the centrifugal filter device (MWCO=10 kDa). The obtained Glu-Insulin was stored at 4° C. until use. We first examined the specific binding affinity of free GLUT1 proteins and Glu-Insulin in vitro. We incubated the GLUT1 with Glu-Insulin overnight, free Glu-Insulin was removed by centrifugal filter device (MWCO=10 kDa).

[4] = system: mRBCs
Experimental: The mRBCs were incubated with Glu-Insulin overnight and imaged using the confocal fluorescence microscope to determine whether Glu-Insulin can bind to mRBCs via the specific glucose-GLUT binding.

[5] = system: healthy mice; experiment: Hypoglycemia study in healthy mice under normoglycemic conditions; settings: mouse, in vivo
Experimental: FIG. 8F is a bar graph showing the quantification of the hypoglycemia index, calculated from the difference between the initial and nadir BG readings divided by the time at which nadir was reached. The error bars are based on the SD of five mice per group. (P values: *P<0.05) Next, the potential for insulin−mRBCs to induce hypoglycemia was studied in healthy mice under normoglycemic conditions (FIG. 8E). […] The corresponding hypoglycemia index was calculated to assess the risk of hypoglycemia (Yu J, et al. Proc. Natl. Acad. Sci. U.S.A. 112, 8260-8265 (2015); Chou DH-C, et al. Proc. Natl. Acad. Sci. U.S.A. 112, 2401-2406 (2015)).

[6] = system: STZ-induced diabetic mice; experiment: Intraperitoneal glucose tolerance test (IPGTT) 1.5 h after administration; assay type: in vivo; settings: IPGTT 1.5 hours after i.v. administration
Experimental: In Vivo Studies Using STZ-Induced Diabetic Mice. STZ-induced male C57B6 diabetic mice were purchased from Jackson Labs (USA) and used under protocols approved by the Institutional Animal Care and Use Committee at North Carolina State University. For in vivo circulating behavior of insulin-RBC, mRBCs were coupled with FITC after loading with insulin, 3 mice were injected i.v. with autologous insulin−mRBCs. Then ˜3 μL of blood was extracted from the tail vein at different time points and then dispersed in 0.5 mL of PBS with anticoagulants. Flow cytometry measurement was applied to determine the percentages of insulin−mRBCs (positive in FITC) in the blood samples. […] The BG level was measured from tail vein blood samples (approximately 3 μL) of mice using the Clarity GL2Plus glucose meter (Clarity Diagnostics) at different time points. […] Plasma insulin concentrations were determined using the human insulin ELISA kit (Calbiotech, USA). […] To quantitate the glucose response to the various insulin formulations (Yu J, et al. Proc. Natl. Acad. Sci. U.S.A. 112, 8260-8265 (2015); Chou DH-C, et al. Proc. Natl. Acad. Sci. U.S.A. 112, 2401-2406 (2015)), the area under the curve was calculated for each group between 90 and 200 min. […] Furthermore, plasma insulin levels of diabetic mice were monitored over time by ELISA after IPGTT (FIG. 8D).

[7] = system: STZ-induced diabetic mice; experiment: Blood glucose levels in STZ-induced diabetic mice after treatment; assay type: in vivo; settings: i.v., 5 mg/kg insulin
Experimental: In Vivo Studies Using STZ-Induced Diabetic Mice. STZ-induced male C57B6 diabetic mice were purchased from Jackson Labs (USA) and used under protocols approved by the Institutional Animal Care and Use Committee at North Carolina State University. For in vivo circulating behavior of insulin-RBC, mRBCs were coupled with FITC after loading with insulin, 3 mice were injected i.v. with autologous insulin−mRBCs. Then ˜3 μL of blood was extracted from the tail vein at different time points and then dispersed in 0.5 mL of PBS with anticoagulants. Flow cytometry measurement was applied to determine the percentages of insulin−mRBCs (positive in FITC) in the blood samples. […] The BG level was measured from tail vein blood samples (approximately 3 μL) of mice using the Clarity GL2Plus glucose meter (Clarity Diagnostics) at different time points. […] Plasma insulin concentrations were determined using the human insulin ELISA kit (Calbiotech, USA). The efficacy of insulin−mRBCs for treatment of hyperglycemia in STZ-induced type 1 diabetic mice (Like, A A, et al. Science 193, 415-417 (1976)) was also assessed. […] The BG levels of treated mice were then monitored over time.

Glu-Insulin: human recombinant insulin conjugated to two glucose (glucosamine) molecules via a bifunctional maleimide (Sulfo-SMCC/thiol) linker
bioactivity profile relative to native insulin [1]: do not display any significant difference in their bioactivity profiles | binding of Glu-Insulin to mRBCs [2]: bound to the mRBCs | binding of Glu-Insulin to free GLUT1 protein [3]: insulin signals could be detected in supernatant if co-incubated with GLUT1 proteins | damage to mRBCs by insulin binding (annexin V) [4]: does not cause significant damage to mRBCs | BG levels in healthy mice [5]: significantly decreased BG levels compared to insulin−mRBCs treated mice | BG response after IPGTT [6]: only exhibited a fleeting response | BG level recovered within 24 h [7]: ~500 mg/dL | BG level within 1 h [7]: < 70 mg/dL
